The text below walks through data of patent US12268666B2, “Spray-dried dispersions, formulations, and polymorphs of (S)-5-amino-3-(4-((5-fluoro-2-methoxybenzamido)methyl)phenyl)-1-(1,1,1-trifluoropropan-2-yl)-1H-pyrazole-4-carboxamide” (Loxo Oncology, Inc., priority 2018, dated 2025).

Structures are written as SMILES.

The target of data set [1] is T1, BTK (Homo sapiens, UniProt Q06187).
T1 construct: host or cells: Ramos RA1
Kind of data set: BTK Y223 autophosphorylation in Ramos RA1 cells. Format: cell-based. To be noted: anti-human IgM stimulation. As to the method:
Ramos RA1 cells, obtained from ATCC (CRL-1596), are grown in RPMI 1640+10% fetal bovine serum (FBS) at 37° C. in a CO2 incubator. […] Nine hundred μL of cell/well are added to 24 well plates and 100 uL of 10× stocks of inhibitor are added. The 10× compound of Formula I stocks are prepared in 1% DMSO, by doing a 1:3 dilution series with final concentrations in the wells ranging between 900 nM to 0.41 nM. […] All samples are tested in triplicate. After 2 hours (starvation and dosing) sodium orthovanadate is added to a final concentration of 200 μM and incubated for 30 more min. Cells are then stimulated with 4 uL of goat F(ab′)2 anti-human IgM (Jackson ImmunoResearch #109-006-129) for 5 min at room temperature, spun down, resuspended in 100 uL of […]™ M (Sigma #C2978) containing 5× Halt phosphatase and protease inhibitor cocktails (Pierce #78442), and stored at −80° C. Lysates are quantified by BCA (Pierce #23225) and analyzed by Simple Western (Protein Simple) with the following antibodies: anti-phospho-BTK (Y223) (Cell Signaling Technologies (CST) #5082), anti-BTK (CST #8547), anti-phospho-PLCγ2 (Y1217) (CST 3871), anti-PLCγ2 (CST 3872), and anti-GAPDH (GAPDH refers to glyceraldehyde 3-phosphate dehydrogenase) (Novus #MAB5718-SP). […] Results are analyzed with Compass software (Protein Simple), and IC50 values are calculated on GraphPad Prism 7.04 software.

The subject of data set [2] is OCI-Ly10 human B-cell lymphoma cell line xenograft. The data set can be described thus: Tumor growth inhibition in OCI-Ly10 xenografts. The class given is in vivo, male NOD SCID mice. To be noted: for tumor growth during the dosing period: oral, 28 days. As to the method: A total of 65 male NOD-SCIO mice are used for the study. At the start of the study the animals are aged 6-8 weeks and weighed approximately 21-27 g. Animals are housed in IVC cages (up to 5 per cage) with individual mice identified by tail marking. All animals are allowed free access to a standard certified commercial diet and sanitized water during the study. The holding room is maintained under standard conditions: 20-24° C., 40-70% humidity and a 12 hr light/dark cycle. Animals are randomly assigned to treatment groups. OCI-Lyl0 cells are implanted subcutaneously into the flanks of male NOD SCID mice and allowed to grow to a volume of approximately 150-200 mm^3. […] The formulation used is 0.5% hydroxypropyl methylcellulose. The dosing volume is 10 mL/kg. An individual animal's dose is calculated from the bodyweight recorded on the day of dosing. Animals are dosed for 28 days. Bodyweight and health observation of animals is recorded daily for the duration of dosing.
Tumor volume is measured three times per week during the study.

For data set [3], the system named is TMD8 tumor xenografts. The data set can be described thus: Tumor growth in TMD8 human diffuse large B cell lymphoma xenograft model. The class given is in vivo. As for the experimental part:
The human diffuse large B cell lymphoma TMD8 cells are maintained in suspension in RPMI 1640 with 10% Fetal Calf Serum (FCS) and 1% of Glutamax. The cells are transferred to a 50 mL Falcon tube and centrifuged at 1200 rpm for 5 min. The supernatant is removed and the cell pellet resuspended in PBS before being mixed with Matrigel (1/1, v/v). The cell suspension:Matrigel mixture at a final target cell concentration of 40×10^6 cells/mL is kept on ice until the s.c. injections (250 μL/mouse) to maintain the Matrigel solution in a liquid state.
The animals are female BalB/c mice aged 9 weeks-old at the day of injection. The mice are housed in individually ventilated cage racks with HEPA filtered air supply and all materials that contact the immunodeficient animals are steam sterilized. This includes cages, bedding, water and feed. The animal room conditions are set as follows. The temperature is 22±2° C., and the relative humidity is 50±10%. The light/dark cycle is 12 h/12 h, and the air change rate is 12 to 15 cycles/hour of filtered, 100% fresh air. All animals had free access to sterilized water and irradiated controlled food (reference A04CSafe, Augy-France).
The compound of Formula I is formulated in methylcellulose/Tween80/Water (0.6%/0.5%/98.5%; w/w/v). The vehicle for the dosing of control group is methylcellulose/Tween 80/Water (0.6%/0.5%/98.5%; w/w/v), 10 mL/kg. 151.4 mg of the compound of Formula I are weighed and formulated with 50.4 mL of vehicle to obtain a solution at 3 mg/mL of free base. For the 1 mg/mL suspension preparation, 50.1 mg of the compound of Formula I are weighed and solubilized in 50.1 mL of vehicle. […]
Tumor width and length are measured with digital calipers. The tumor volume in mm^3 is calculated by the formula: Volume=0.52×(width)^2×length[…], width and length measured in mm. […]
Tumors are collected from each mouse at Day 28 post the cell injection. […] Tumor weight statistical analysis between each group is determined by a 1-way ANOVA and by 2-Way ANOVA with repeated measures for the mice weight and the tumor volume monitoring, followed by a Dunnett's test. […]
In general terms: Xenograft models place foreign cells or tissue in a host animal.

T1 sequence (Q06187 whole entry): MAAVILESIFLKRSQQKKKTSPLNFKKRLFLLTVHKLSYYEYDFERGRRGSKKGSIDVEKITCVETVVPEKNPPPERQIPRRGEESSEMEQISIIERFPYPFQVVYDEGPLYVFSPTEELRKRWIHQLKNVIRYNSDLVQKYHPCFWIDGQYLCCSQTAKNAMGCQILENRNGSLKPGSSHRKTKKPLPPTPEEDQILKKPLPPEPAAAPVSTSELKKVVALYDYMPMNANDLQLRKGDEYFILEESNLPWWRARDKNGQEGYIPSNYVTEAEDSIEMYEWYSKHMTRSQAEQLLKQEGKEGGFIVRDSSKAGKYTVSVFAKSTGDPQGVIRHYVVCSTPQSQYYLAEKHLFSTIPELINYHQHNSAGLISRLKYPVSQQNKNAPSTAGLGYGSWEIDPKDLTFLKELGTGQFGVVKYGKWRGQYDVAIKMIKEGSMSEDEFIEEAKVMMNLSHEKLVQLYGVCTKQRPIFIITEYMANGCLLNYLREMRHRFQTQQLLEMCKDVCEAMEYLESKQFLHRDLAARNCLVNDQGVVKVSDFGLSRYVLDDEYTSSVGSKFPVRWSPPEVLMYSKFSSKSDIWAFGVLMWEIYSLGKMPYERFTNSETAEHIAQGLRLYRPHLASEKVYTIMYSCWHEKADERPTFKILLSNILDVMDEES

The term IC50 denotes the point on the concentration scale where inhibition reaches its midpoint. In data set [1], `COc1ccc(F)cc1C(=O)NCc1ccc(-c2nn([C@@H](C)C(F)(F)F)c(N)c2C(N)=O)cc1` [compound of Formula I, (S)-5-amino-3-(4-((5-fluoro-2-methoxybenzamido)methyl)phenyl)-1-(1,1,1-trifluoropropan-2-yl)-1H-pyrazole-4-carboxamide] returned an IC50 of 3.2 ± 0.6 nM. The “tumor growth during the dosing period” value in data set [2] (10 mg/kg BID) and in data set [2] (50 mg/kg BID) was “inhibition of tumor growth” each time. The “tumor size compared with ibrutinib-treated animals” value in data set [2] (10 mg/kg BID, p=0.0008, ANOVA with Tukey post-hoc test) is given as “significantly smaller than those from animals treated with ibrutinib”; in data set [2] (50 mg/kg BID, p<0.0001, ANOVA with Tukey post-hoc test), “significantly smaller than those from animals treated with ibrutinib”. Further, the “tumor growth after dosing had stopped” value in data set [2] (after the 28-day dosing period) is “maintained even after dosing had stopped”. The “TGI vs the vehicle treated group” value was determined as 35% in data set [3] (10 mg/kg oral BID for 14 days) and 87% in data set [3] (30 mg/kg oral BID for 14 days). In addition, in data set [3] (chronic oral BID administration for 14 days at 10 and 30 mg/kg), the tolerability entry is recorded as “well tolerated”.
